Measurements reported in ChEMBL document CHEMBL3885881, “DrugMatrix”.

Species on record: Rattus norvegicus
Test: DrugMatrix - Regimen: Daily Repeat
Assay type: toxicity, organism-based, Sprague-Dawley
Set-up: regimen Daily Repeat, gender Male, age 6-8 weeks
Conditions: in vivo, po, 110 mg/kg, route oral GAVAGE, dose level Low, vehicle 100 % WATER; for ABSOLUTE BASOPHIL / ABSOLUTE EOSINOPHIL / ABSOLUTE LYMPHOCYTE / ABSOLUTE MONOCYTE / ABSOLUTE SEGMENTED NEUTROPHIL / BASOPHIL / EOSINOPHIL / ERYTHROCYTE COUNT / HEMATOCRIT / HEMOGLOBIN / LEUKOCYTE COUNT / LYMPHOCYTE / MEAN CORPUSCULAR HEMOGLOBIN / MEAN CORPUSCULAR HEMOGLOBIN CONCENTRATION / MEAN CORPUSCULAR VOLUME / MONOCYTE / NEUTROPHIL / NUCLEATED RED BLOOD CELLS / PLATELET COUNT: tissue Blood; for ALANINE AMINOTRANSFERASE / ALBUMIN / ALKALINE PHOSPHATASE / ASPARTATE AMINOTRANSFERASE / BLOOD UREA NITROGEN / CARBON DIOXIDE / CHLORIDE / CHOLESTEROL / CREATINE PHOSPHOKINASE / CREATININE / GLUCOSE / LACTATE DEHYDROGENASE / LIPASE / PHOSPHORUS / POTASSIUM / SODIUM / TOTAL BILIRUBIN / TOTAL PROTEIN / URIC ACID: tissue Plasma

CCOC(=O)n1ccn(C)c1=S [CARBIMAZOLE]
ABSOLUTE BASOPHIL (72 h, time 3 day): 0 CELLS/uL | ABSOLUTE EOSINOPHIL (72 h, time 3 day): 15.67 CELLS/uL | ABSOLUTE LYMPHOCYTE (72 h, time 3 day): 5022.67 CELLS/uL | ABSOLUTE MONOCYTE (72 h, time 3 day): 37.33 CELLS/uL | ABSOLUTE SEGMENTED NEUTROPHIL (72 h, time 3 day): 357.67 CELLS/uL | BASOPHIL (72 h, time 3 day): 0% | EOSINOPHIL (72 h, time 3 day): 0.33% | ERYTHROCYTE COUNT (72 h, time 3 day): 5.37 x10E6/uL | HEMATOCRIT (72 h, time 3 day): 33.5% | HEMOGLOBIN (72 h, time 3 day): 13.37 G/DL | LEUKOCYTE COUNT (72 h, time 3 day): 5.43 x10E3/uL | LYMPHOCYTE (72 h, time 3 day): 92% | MEAN CORPUSCULAR HEMOGLOBIN (72 h, time 3 day): 24.9 pg | MEAN CORPUSCULAR HEMOGLOBIN CONCENTRATION (72 h, time 3 day): 39.9 G/DL | MEAN CORPUSCULAR VOLUME (72 h, time 3 day): 62.43 fL | MONOCYTE (72 h, time 3 day): 0.67% | NEUTROPHIL (72 h, time 3 day): 7% | NUCLEATED RED BLOOD CELLS (72 h, time 3 day): 0 /100WBC | PLATELET COUNT (72 h, time 3 day): 1166.67 x10E3/uL | ALANINE AMINOTRANSFERASE (72 h, time 3 day): 39.33 u/L | ALBUMIN (72 h, time 3 day): 4.23 G/DL | ALKALINE PHOSPHATASE (72 h, time 3 day): 314 u/L | ASPARTATE AMINOTRANSFERASE (72 h, time 3 day): 65.33 u/L | BLOOD UREA NITROGEN (72 h, time 3 day): 19.33 mg/dL | CARBON DIOXIDE (72 h, time 3 day): 29.33 mmol/L | CHLORIDE (72 h, time 3 day): 102 MEQ/L | CHOLESTEROL (72 h, time 3 day): 81.67 mg/dL | CREATINE PHOSPHOKINASE (72 h, time 3 day): 137 u/L | CREATININE (72 h, time 3 day): 0.2 mg/dL | GLUCOSE (72 h, time 3 day): 129.33 mg/dL | LACTATE DEHYDROGENASE (72 h, time 3 day): 155 u/L | LIPASE (72 h, time 3 day): 9.33 u/L | PHOSPHORUS (72 h, time 3 day): 10.27 mg/dL | POTASSIUM (72 h, time 3 day): 6.06 MEQ/L | SODIUM (72 h, time 3 day): 147.63 MEQ/L | TOTAL BILIRUBIN (72 h, time 3 day): 0.2 mg/dL | TOTAL PROTEIN (72 h, time 3 day): 6 G/DL | URIC ACID (72 h, time 3 day): 0.7 mg/dL | ABSOLUTE BASOPHIL (120 h, time 5 day): 0 CELLS/uL | ABSOLUTE EOSINOPHIL (120 h, time 5 day): 0 CELLS/uL | ABSOLUTE LYMPHOCYTE (120 h, time 5 day): 14370.67 CELLS/uL | ABSOLUTE MONOCYTE (120 h, time 5 day): 96 CELLS/uL | ABSOLUTE SEGMENTED NEUTROPHIL (120 h, time 5 day): 766.67 CELLS/uL | BASOPHIL (120 h, time 5 day): 0% | EOSINOPHIL (120 h, time 5 day): 0% | ERYTHROCYTE COUNT (120 h, time 5 day): 6.23 x10E6/uL | HEMATOCRIT (120 h, time 5 day): 38.1% | HEMOGLOBIN (120 h, time 5 day): 14.73 G/DL | LEUKOCYTE COUNT (120 h, time 5 day): 15.23 x10E3/uL | LYMPHOCYTE (120 h, time 5 day): 94% | MEAN CORPUSCULAR HEMOGLOBIN (120 h, time 5 day): 23.67 pg | MEAN CORPUSCULAR HEMOGLOBIN CONCENTRATION (120 h, time 5 day): 38.73 G/DL | MEAN CORPUSCULAR VOLUME (120 h, time 5 day): 61.13 fL | MONOCYTE (120 h, time 5 day): 0.67% | NEUTROPHIL (120 h, time 5 day): 5.33% | NUCLEATED RED BLOOD CELLS (120 h, time 5 day): 0 /100WBC | PLATELET COUNT (120 h, time 5 day): 998 x10E3/uL | ALANINE AMINOTRANSFERASE (120 h, time 5 day): 56.67 u/L | ALBUMIN (120 h, time 5 day): 4.53 G/DL | ALKALINE PHOSPHATASE (120 h, time 5 day): 416.67 u/L | ASPARTATE AMINOTRANSFERASE (120 h, time 5 day): 76.67 u/L | BLOOD UREA NITROGEN (120 h, time 5 day): 19 mg/dL | CARBON DIOXIDE (120 h, time 5 day): 23.33 mmol/L | CHLORIDE (120 h, time 5 day): 103 MEQ/L | CHOLESTEROL (120 h, time 5 day): 83 mg/dL | CREATINE PHOSPHOKINASE (120 h, time 5 day): 286 u/L | CREATININE (120 h, time 5 day): 0.2 mg/dL | GLUCOSE (120 h, time 5 day): 154 mg/dL | LACTATE DEHYDROGENASE (120 h, time 5 day): 175.67 u/L | LIPASE (120 h, time 5 day): 9.67 u/L | PHOSPHORUS (120 h, time 5 day): 12.53 mg/dL | POTASSIUM (120 h, time 5 day): 6.34 MEQ/L | SODIUM (120 h, time 5 day): 148.13 MEQ/L | TOTAL BILIRUBIN (120 h, time 5 day): 0.2 mg/dL | TOTAL PROTEIN (120 h, time 5 day): 6.87 G/DL | URIC ACID (120 h, time 5 day): 1.97 mg/dL
